For one experiment, the target named is T1, Adenosine receptor A1 (Gallus gallus, UniProt P49892).
T1 sequence (P49892 whole entry): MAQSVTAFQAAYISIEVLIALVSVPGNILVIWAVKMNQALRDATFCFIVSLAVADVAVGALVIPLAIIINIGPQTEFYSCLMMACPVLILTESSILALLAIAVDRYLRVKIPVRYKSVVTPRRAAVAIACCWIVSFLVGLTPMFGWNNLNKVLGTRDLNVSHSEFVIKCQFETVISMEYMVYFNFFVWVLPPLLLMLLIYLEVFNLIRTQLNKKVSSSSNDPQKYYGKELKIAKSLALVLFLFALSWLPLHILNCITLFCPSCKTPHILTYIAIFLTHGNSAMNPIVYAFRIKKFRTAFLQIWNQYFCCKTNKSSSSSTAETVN

The next experiment addresses T2, Adenosine receptor A3 (Gallus gallus, UniProt A0A8V1ACC1).
T2 sequence (A0A8V1ACC1 whole entry): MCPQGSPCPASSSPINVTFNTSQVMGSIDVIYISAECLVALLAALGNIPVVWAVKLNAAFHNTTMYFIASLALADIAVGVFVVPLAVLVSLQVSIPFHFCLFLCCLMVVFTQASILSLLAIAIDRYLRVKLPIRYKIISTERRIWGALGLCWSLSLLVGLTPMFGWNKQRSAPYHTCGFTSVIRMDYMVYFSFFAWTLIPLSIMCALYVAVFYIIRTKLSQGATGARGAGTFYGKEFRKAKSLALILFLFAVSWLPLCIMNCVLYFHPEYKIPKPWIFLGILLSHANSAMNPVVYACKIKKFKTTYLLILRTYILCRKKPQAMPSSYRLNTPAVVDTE

The structures appear in SMILES notation.

Consider `CCNC(=O)[C@H]1O[C@@H](n2cnc3c(N)ncnc32)[C@H](O)[C@@H]1O`, for which the results for the Ki at Adenosine receptor A1 and at Adenosine receptor A3 were 23.4 nM and 37.1 nM, respectively. The compound `Cc1ccc(-c2oc3ccc(Cl)cc3c(=O)c2Cl)c(OC(C)C)c1` came in with an inhibitory constant (Ki) on Adenosine receptor A3 of 3310 nM. For the compound `CCCn1c(=O)c2nc[nH]c2n(CCC)c1=O`, the Ki is 11.2 nM at Adenosine receptor A1 and 53.3 nM on Adenosine receptor A3.

Turning to `CCOC(=O)C1=C(c2ccccc2)N=C(C)C(C(=O)OCC)C1/C=C/c1ccccc1` (stereo unspecified), the figures for the inhibition constant Ki at Adenosine receptor A1 and on Adenosine receptor A3 were 3430 nM and 990 nM, respectively. The like results for `OCC1OC(n2cnc3c(NC4CCCC4)nc(Cl)nc32)C(O)C1O` (stereo unspecified) [2-(2-Chloro-6-cyclopentylamino-purin-9-yl)-5-hydroxymethyl-tetrahydro-furan-3,4-diol] were, in that order, 4.01 nM and 6.82 nM. In the case of `CNC(=O)[C@H]1O[C@@H](n2cnc3c(NCc4cccc(I)c4)nc(Cl)nc32)[C@H](O)[C@@H]1O` [2-Cl-IB-MECA], at Adenosine receptor A1, the Ki came to 74 nM. As for `CNC(=O)C1OC(n2cnc3c(NCc4cccc(I)c4)ncnc32)C(O)C1O` (stereo unspecified) [3,4-dihydroxy-5-(6-{[(3-iodophenyl)methyl]amino}-9H-purin-9-yl)-N-methyloxolane-2-carboxamide], the Ki at Adenosine receptor A1 was 16.3 nM; on Adenosine receptor A3 it was 2.8 nM. Take `Nc1ncnc2c1ncn2[C@@H]1O[C@H](C(=O)NCc2ccccc2)[C@@H](O)[C@H]1O` [B-NECA]: the Ki at Adenosine receptor A1 was 6.83 nM; on Adenosine receptor A3, 6.79 nM. The compound `CC(C=C[C@@]1(O)C(C)=CC(=O)CC1(C)C)=CC(=O)O` [CAS_14375-45-2] came in with a Ki on Adenosine receptor A3 of 56.1 nM. `OC[C@H]1O[C@@H](n2cnc3c(NC4CCCCC4)ncnc32)[C@H](O)[C@@H]1O` [CHA]: the Ki came out at 1.66 nM at Adenosine receptor A1 and 17.1 nM on Adenosine receptor A3. Turning to `CCCn1c(=O)c2[nH]c(-c3ccc(C=CC(=O)O)cc3)nc2n(CCC)c1=O` [NSC_129447], the Ki at Adenosine receptor A1 was found to be 167 nM; at Adenosine receptor A3 it was 36.6 nM.

In the case of `CC(Cc1ccccc1)Nc1ncnc2c1ncn2C1OC(CO)C(O)C1O` (stereo unspecified) [R-N6-(2-phenylisopropyl) adenosine], the Ki was found to be 0.72 nM on Adenosine receptor A1 and 1.13 nM at Adenosine receptor A3.

(Values after BindingDB's records for doi:10.1007/s002100000340 (University of Illinois At Chicago, 2001).)
